Consider 8 compounds from DBAASP.

≈ marks a conversion by molar mass, not a printed value. Where “and” joins values, the source holds several entries; their conditions need not be identical. Equal values may be shown once.

What all share (test): ≥ marks a high value that may be exact or a test limit, other limits are often not marked, values filed in µg/mL are converted to µM
Experiment [1] concerns Bacillus subtilis IFO 3513.
Experiment [2] has as its system Escherichia coli IFO 12734.
Experiment [3] has as its system Staphylococcus aureus IFO 12732.
Experiment [4] deals with Bacillus subtilis KCTC 1918.
Experiment [5] deals with Candida albicans TIMM 1768.
In experiment [6] the test system is Pseudomonas aeruginosa KCTC 1637.
Experiment [7] has as its system Salmonella typhimurium KCTC 1926.
Experiment [8] has as its system Staphylococcus epidermidis KCTC 3096.
In experiment [9] the test system is Trichosporon beigelii KCTC 7707.
The subject of experiment [10] is Batrachochytrium dendrobatidis.
For experiment [11], the system named is Escherichia coli ATCC 25922.
In experiment [12] the test system is Staphylococcus aureus FDA 209P.
The subject of experiment [13] is Bacillus subtilis ATCC 6633.
Experiment [14] deals with Escherichia coli ATCC 10536.
The test system of experiment [15] is Pseudomonas aeruginosa ATCC BAA-427.
For experiment [16], the system named is Staphylococcus aureus ATCC 25923.
The test system of experiment [17] is Escherichia coli ML-35p.
Experiment [18] concerns Malassezia sympodialis ATCC 42132.
The subject of experiment [19] is Staphylococcus aureus RN4220.
For experiment [20], the system named is Escherichia coli BW25113 ΔsbmA.
For experiment [21], the system named is Escherichia coli BW25113.
The test system of experiment [22] is Escherichia coli HB101.
Experiment [23] deals with Escherichia coli ML-35.
Experiment [24] concerns Escherichia coli TOP 10.
For experiment [25], the system named is Salmonella enterica subsp. enterica serovar Typhimurium ATCC 14028.
Experiment [26] relates to Serratia marcescens ATCC 8100.
The subject of experiment [27] is Mycobacterium tuberculosis H37Rv.

In the case of `CC[C@H](C)[C@H](N)C(=O)N[C@@H](CC(C)C)C(=O)N1CCC[C@H]1C(=O)N[C@@H](CCCCN)C(=O)N[C@@H](CCCCN)C(=O)N[C@@H](CCCCN)C(=O)N1CCC[C@H]1C(=O)N[C@@H](Cc1c[nH]c2ccccc12)C(=O)N[C@@H](Cc1c[nH]c2ccccc12)C(=O)N1CCC[C@H]1C(=O)N[C@@H](Cc1c[nH]c2ccccc12)C(=O)N[C@@H](CCCN=C(N)N)C(=O)N[C@@H](CCCN=C(N)N)C(N)=O` [ILPKKKPWWPWRR], the MIC was 3.49 µM (≈ 6.25 µg/mL) in [1], at least 55.8 µM in experiment [2] and 3.49 µM (≈ 6.25 µg/mL) in experiment [3].
Regarding `CC[C@H](C)[C@H](NC(=O)CNC(=O)[C@@H](NC(=O)[C@H](CCCCN)NC(=O)[C@H](CCCCN)NC(=O)[C@H](Cc1ccccc1)NC(=O)[C@H](CC(C)C)NC(=O)[C@H](CCCCN)NC(=O)[C@H](Cc1c[nH]c2ccccc12)NC(=O)[C@H](CCCCN)NC(=O)[C@H](CCCCN)NC(=O)[C@H](CCCCN)NC(=O)[C@@H](N)CCCCN)[C@@H](C)CC)C(=O)NCC(=O)N[C@@H](CCCCN)C(=O)N[C@@H](Cc1ccccc1)C(=O)N[C@@H](CC(C)C)C(N)=O` [KKKKWKLFKKIGIGKFL], the MIC in [4] was found to be 3.12 µM (≈ 6.52 µg/mL); in experiment [5], 12.5 µM (≈ 26.1 µg/mL); in experiment [6], 1.56 µM (≈ 3.26 µg/mL); in experiment [7] it was 0.19 µM (≈ 0.397 µg/mL); in experiment [8], 3.12 µM (≈ 6.52 µg/mL); in experiment [9], 6.25 µM (≈ 13.1 µg/mL).
For `CC[C@H](C)[C@H](NC(=O)CN)C(=O)N[C@@H](Cc1ccccc1)C(=O)N[C@@H](CO)C(=O)N[C@@H](CCCCN)C(=O)N[C@@H](CC(C)C)C(=O)N[C@@H](C)C(=O)NCC(=O)N[C@@H](CCCCN)C(=O)N[C@@H](CCCCN)C(=O)N[C@H](C(=O)N[C@@H](CCCCN)C(=O)N[C@@H](CC(N)=O)C(=O)N[C@@H](CC(C)C)C(=O)N[C@@H](CC(C)C)C(=O)N[C@H](C(=O)N[C@@H](CO)C(=O)NCC(=O)N[C@@H](CC(C)C)C(=O)N[C@@H](CCCCN)C(=O)N[C@@H](CC(N)=O)C(=O)N[C@H](C(=O)NCC(=O)N[C@@H](CCCCN)C(=O)N[C@@H](CCC(=O)O)C(=O)N[C@H](C(=O)NCC(=O)N[C@@H](CCSC)C(=O)N[C@@H](CC(=O)O)C(=O)N[C@H](C(=O)N[C@H](C(=O)N[C@@H](CCCN=C(N)N)C(=O)N[C@H](C(=O)NCC(=O)N[C@H](C(=O)N[C@@H](CC(=O)O)C(=O)N[C@H](C(=O)N[C@@H](C)C(=O)NCC(=O)N[C@H]1CSSC[C@@H](C(=O)O)NC(=O)[C@H](CCC(=O)O)NC(=O)CNC(=O)[C@H](CCCCN)NC(=O)[C@H]([C@@H](C)CC)NC(=O)[C@H](CCCCN)NC1=O)[C@@H](C)CC)[C@@H](C)CC)[C@@H](C)O)C(C)C)C(C)C)C(C)C)C(C)C)[C@@H](C)CC)[C@@H](C)CC` [GIFSKLAGKKIKNLLISGLKNVGKEVGMDVVRTGIDIAGCKIKGEC], the minimum inhibitory concentration (MIC) was 25 µM and 12.5 µM in [10]; 2.8 µM (≈ 13.4 µg/mL) in experiment [11]; 4.3 µM (≈ 20.6 µg/mL) in [12].
For `CC[C@H](C)[C@H](N)C(=O)N[C@@H](CC(C)C)C(=O)NCC(=O)N[C@@H](CCCCN)C(=O)N[C@H](C(=O)N[C@@H](Cc1c[nH]c2ccccc12)C(=O)N[C@@H](CCC(=O)O)C(=O)NCC(=O)N[C@@H](CCCCN)C(=O)N[C@@H](CCCCN)C(=O)N[C@@H](CO)C(=O)N[C@@H](CC(C)C)C(=O)N[C@@H](Cc1ccccc1)C(N)=O)[C@@H](C)CC` [ILGKIWEGKKSLF], the MIC in [13] is 2 µM (≈ 3.04 µg/mL); in experiment [14], 4 µM (≈ 6.07 µg/mL); in experiment [11], 8 µM (≈ 12.1 µg/mL); in [15], 8 µM (≈ 12.1 µg/mL); in experiment [16], 8 µM (≈ 12.1 µg/mL).
Take `CC[C@H](C)[C@H](N)C(=O)N[C@@H](CC(C)C)C(=O)N1CCC[C@H]1C(=O)N[C@@H](Cc1c[nH]c2ccccc12)C(=O)N[C@@H](CCCCN)C(=O)N[C@@H](CCCCN)C(=O)N1CCC[C@H]1C(=O)N[C@@H](CCCCN)C(=O)N[C@@H](CC(C)C)C(=O)N1CCC[C@H]1C(=O)N[C@@H](Cc1c[nH]c2ccccc12)C(=O)N[C@@H](CCCN=C(N)N)C(=O)N[C@@H](CCCN=C(N)N)C(N)=O` [ILPWKKPKLPWRR]: the minimal inhibitory concentration (MIC) in experiment [1] came out at 0.908 µM (≈ 1.56 µg/mL); in experiment [2], 7.28 µM (≈ 12.5 µg/mL); in experiment [3], 1.82 µM (≈ 3.13 µg/mL).
Regarding `NC(=O)[C@H](CCCN=C(N)N)NC(=O)[C@H](CCCN=C(N)N)NC(=O)[C@H](CCCN=C(N)N)NC(=O)[C@H](CCCN=C(N)N)NC(=O)[C@H](CCCN=C(N)N)NC(=O)[C@H](CCCN=C(N)N)NC(=O)[C@H](CCCN=C(N)N)NC(=O)[C@H](CCCN=C(N)N)NC(=O)[C@@H](N)CCCN=C(N)N` [RRRRRRRRR], the MIC in [17] is at least 100 µM; in experiment [18] it was 9.83 µM (≈ 14 µg/mL); in [19], at least 100 µM.
As for `CC[C@H](C)[C@H](NC(=O)[C@H](CCCN=C(N)N)NC(=O)[C@@H](N)CCCN=C(N)N)C(=O)N[C@@H](CCCN=C(N)N)C(=O)N1CCC[C@H]1C(=O)N[C@@H](CCCN=C(N)N)C(=O)N1CCC[C@H]1C(=O)N1CCC[C@H]1C(=O)N[C@@H](CCCN=C(N)N)C(=O)N[C@@H](CC(C)C)C(=O)N1CCC[C@H]1C(=O)N[C@@H](CCCN=C(N)N)C(=O)N1CCC[C@H]1C(=O)N[C@@H](CCCN=C(N)N)C(=O)N1CCC[C@H]1C(=O)N[C@@H](CCCN=C(N)N)C(=O)N1CCC[C@H]1C(=O)N[C@@H](CC(C)C)C(=O)N1CCC[C@H]1C(=O)N[C@@H](Cc1ccccc1)C(=O)N1CCC[C@H]1C(=O)N[C@@H](CCCN=C(N)N)C(=O)N1CCC[C@H]1C(=O)O` [RRIRPRPPRLPRPRPRPLPFPRP], the MIC in experiment [20] was at least 52.1 µM; in experiment [21] it was 7.4 µM (≈ 21.3 µg/mL); in experiment [22] it was 0.5 µM (≈ 1.44 µg/mL); in experiment [23], 1 µM (≈ 2.88 µg/mL); in experiment [24], 4.6 µM (≈ 13.3 µg/mL); in experiment [25], 2 µM (≈ 5.76 µg/mL). For the same compound, the results for the minimum inhibitory concentration (MIC) in [26] and in experiment [16] were 4 µM (≈ 11.5 µg/mL) and above 128 µM, respectively.
`CC[C@H](C)[C@H](NC(=O)[C@@H]1CCCN1C(=O)[C@H](CCCN=C(N)N)NC(=O)CNC(=O)[C@H](C)NC(=O)[C@H](CCCN=C(N)N)NC(=O)[C@H](Cc1cnc[nH]1)NC(=O)[C@H](C)NC(=O)[C@H](C)N)C(=O)N[C@@H](Cc1cnc[nH]1)C(=O)N[C@@H](CC(=O)O)C(=O)N[C@@H](C)C(=O)NCC(=O)N[C@H](C(=O)N[C@H](C(=O)N[C@@H](CCCCN)C(=O)N[C@@H](CCC(N)=O)C(=O)O)C(C)C)C(C)C` [AAHRAGRPIHDAGVVKQ] yielded an MIC in experiment [27] of at least 112 µM.

By MIC is commonly meant the smallest concentration in the dilution series that meets the test's criterion for growth inhibition. Lower therefore signals a more susceptible organism.
